According to publication PMC8667045, “Into Deep Water: Optimizing BCL6 Inhibitors by Growing into a Solvated Pocket” (Journal of Medicinal Chemistry, 2021):
Values after ≈ are worked out from the molar mass of the structure shown. Values joined by “and” are separate entries in the source; they are usually repeats but may differ in a detail not shown here. Equal values may be shown once. Read-outs that look alike come from different tables or passages of the source.

Assays:
[1] = molecular target: T1, BCL6 BTB domain (Homo sapiens, UniProt P41182); assay: Rapid X-ray screen: ligand density in extended pocket of BCL6 BTB domain; parameters: made in house; host or cells: E. coli BL21-AI; details: crystals soaked with compound
Text: Furthermore, we speculated that these represent better starting points since the substituent can be modified further to derive additional interactions and more completely fill the extended pocket. […] Instead, we just checked for the presence of ligand density and, in particular, for electron density in the extended pocket.
(§1) directly eluted from the HisTrap FF column without HRV-3C treatment, and submitted to Superdex75
gel filtration as described above.
NH2. A stock solution of WVIP peptide at 100 mM in 100 % DMSO was added to a 2 mg/mL solution
This mixture was then concentrated to a final
protein concentration of 4 mg/mL using a centrifugal concentrator with a 3 kDa molecular weight
complex plus 1 μL of a crystallisation solution consisting of 1 M K 2HPO4, 0.7 M NaH2PO4, 75 mM
drops, followed by 10-120 minutes incubation. Crystals were then cryo-protected in a solution
composed of the crystallisation reagent supplemented with 30 % ethylene glycol and cryo-cooled in
concentrated to a final protein concentration of 10 mg/mL using a centrifugal concentrator with a 3
kDa molecular weight cut-off. Crystals were grown at 18 °C in hanging drops composed of 1.5 μL of
and 0.80 M Na/K Tartrate, against 300 μL of crystallisation solution.
and compounds were soaked as described above for the other construct. Crystals were then cryo-
protected in a solution composed of the crystallisation reagent supplemented with 30 % ethylene
glycol and cryo-cooled in liquid nitrogen.
1.5 Crystallographic data collection, processing and refinement
X-ray data were collected at Diamond Light Source, Harwell campus, Oxfordshire, UK, on beamlines
Research, London, UK, on a Rigaku FRX-AFC11-VariMax Cu-VHF-Pilatus300K. Crystals obtained with […]

[2] = molecular target: T1, BCL6 BTB domain; assay: biochemical; details: for BCL6 TR-FRET pIC50 mean: mean of n replicates
Experimental: Supplementary experimental: protein production, purification and crystallography
3C protease cleavage site.
used without cleaving the tag, as a 6His was needed to bind to the anti-6His-Terbium antibody. For
For both plasmid constructs described above, transformed BL21-AI E. coli cells were grown in LB
carried out at 18 °C for 18 hours. Cells were harvested by centrifugation (5500 g for 30 minutes at 4
oC) and stored at -80 °C.
Cells were re-suspended in a buffer composed of 20 mM Tris pH 8, 250 mM NaCl, 1 mM MgCl2, 0.5
Cells were lysed by sonication followed by centrifugation at 21,000 g for 45 minutes at 4 °C. […]
The final protein was assessed for purity
and molar mass by SDS-PAGE and high-resolution mass spectrometry, respectively.
as §1
gel filtration as described above. […]
2. Supplementary experimental: biological assay conditions
IC50 values were determined using
a sigmoidal four-parameter logistic fit equation.

[3] = NMR solubility assay; format: physicochemical; details: HEPES buffer, 5% DMSO, room temperature
Experimental: 3. Supplementary experimental: physicochemical assays
The plate was then sealed and incubated at room temperature for 20 hours, without shaking. The plate was centrifuged again for 1 minute at […]
spectrometer equipped with a 5 mm TCI-CryoProbe. […]
deuterated solvent. […] All NMR data were acquired at the […]
contained 16k time-domain data points. Relaxation delay was set to 20 sec. […]

[4] = PAMPA passive permeability pH 7.4; details: for PAMPA7.4: pH 7.4, passive permeability Pe
[5] = TR-FRET IC50 individual replicates, single replicates, italic values used 10nM BCL6, otherwise 1nM BCL6
[6] = read-out: BCL6 TR-FRET Geo Mean IC50, geometric mean of n replicates, supplement
[7] = read-out: TR-FRET IC50, tables and figures
[8] = read-out: TR-FRET IC50 individual replicates, single replicates, italic values used 10nM BCL6, otherwise 1nM BCL6

SMILES	Ligand density in extended pocket [1]	IC50 [2, 5]	BCL6 TR-FRET pIC50 mean [2]	IC50 [2, 6]	IC50 [2, 7] [nM]	IC50 [2, 8]	solubility at 20 h [3] [µM]	Papp ([4]; PAMPA, pH 7.4) [×10⁻⁶ cm/s]	PAMPA7.4 [4]
CN(C)c1cc(=O)[nH]c2ccc(Nc3ccnc(Cl)c3C#N)cc12 [Compound 8a, 2-Chloro-4-((4-(dimethylamino)-2-oxo-1,2-dihydroquinolin-6-yl)amino)nicotinonitrile]	No	7010 nM and 4460 nM	5.25 and 5.254	5570 nM	5570	5520 nM	–	–	–
N#Cc1c(Nc2ccc3[nH]c(=O)cc(N4CCCCC4)c3c2)ccnc1Cl [Compound 8b, 2-Chloro-4-((2-oxo-4-(piperidin-1-yl)-1,2-dihydroquinolin-6-yl)amino)nicotinonitrile]	No	1570 nM and 1240 nM and 920 nM and 540 nM and 2320 nM	5.93 and 5.929	1180 nM	1180	–	–	–	–
CN1CCN(c2cc(=O)[nH]c3ccc(Nc4ccnc(Cl)c4C#N)cc23)CC1 [Compound 8c, 2-Chloro-4-((4-(4-methylpiperazin-1-yl)-2-oxo-1,2-dihydroquinolin-6-yl)amino)nicotinonitrile]	No	5770 nM and 1240 nM and 2440 nM and 2900 nM	5.58 and 5.578	2640 nM	2640	2550 nM	–	–	–
CCNc1cc(=O)n(C)c2ccc(Nc3cc(C(=O)O)nc(Cl)c3C#N)cc12 [Compound 11a, 6-Chloro-5-cyano-4-((4-(ethylamino)-1-methyl-2-oxo-1,2-dihydroquinolin-6-yl)amino)picolinic Acid]	–	810 nM and 840 nM and 1120 nM	6.05 and 6.045	901 nM	900	890 nM and 870 nM	237 (≈ 94.3 µg/mL)	–	–
CCCNc1cc(=O)n(C)c2ccc(Nc3cc(C(=O)O)nc(Cl)c3C#N)cc12 [Compound 11b, 6-Chloro-5-cyano-4-((1-methyl-2-oxo-4-(propylamino)-1,2-dihydroquinolin-6-yl)amino)picolinic Acid]	–	1330 nM and 1810 nM	5.82 and 5.822	1510 nM	1510	1440 nM and 1490 nM	40 (≈ 16.5 µg/mL)	–	–
Cn1c(=O)cc(NCCF)c2cc(Nc3cc(C(=O)O)nc(Cl)c3C#N)ccc21 [Compound 11c, 6-Chloro-5-cyano-4-((4-((2-fluoroethyl)amino)-1-methyl-2-oxo-1,2-dihydroquinolin-6-yl)amino)picolinic Acid]	–	–	6.06 and 6.057	880 nM and 878 nM	880	870 nM and 890 nM and 880 nM	82 (≈ 34.1 µg/mL)	–	–
Cn1c(=O)cc(NCC2CC2)c2cc(Nc3cc(C(=O)O)nc(Cl)c3C#N)ccc21 [Compound 11d, 6-Chloro-5-cyano-4-((4-((cyclopropylmethyl)amino)-1-methyl-2-oxo-1,2-dihydroquinolin-6-yl)amino)picolinic Acid]	–	270 nM and 420 nM	6.46 and 6.461	350 nM and 346 nM	350	360 nM and 350 nM	324 (≈ 137 µg/mL)	–	–
CNC(=O)[C@@H](C)Nc1cc(=O)[nH]c2ccc(Nc3ccnc(Cl)c3C#N)cc12 [Compound 12b, (R)-2-((6-((2-Chloro-3-cyanopyridin-4-yl)amino)-2-oxo-1,2-dihydroquinolin-4-yl)amino)-N-methylpropanamide]	–	300 nM (2×) and 220 nM and 280 nM and 190 nM	6.60 and 6.596	253 nM	250	240 nM and 260 nM	64 (≈ 25.4 µg/mL)	< 0.2	no measurable passive permeability
CNC(=O)[C@H](C)Nc1cc(=O)[nH]c2ccc(Nc3ccnc(Cl)c3C#N)cc12 [Compound 12c, (S)-2-((6-((2-Chloro-3-cyanopyridin-4-yl)amino)-2-oxo-1,2-dihydroquinolin-4-yl)amino)-N-methylpropanamide]	–	3390 nM and 2070 nM and 2270 nM and 3400 nM and 3900 nM and 2940 nM and 1540 nM	5.57 and 5.574	2670 nM	2670	–	64 (≈ 25.4 µg/mL)	–	–
CNC(=O)C(Nc1cc(=O)[nH]c2ccc(Nc3ccnc(Cl)c3C#N)cc12)C1CC1 (stereo not drawn) [Compound 12d, 2-((6-((2-Chloro-3-cyanopyridin-4-yl)amino)-2-oxo-1,2-dihydroquinolin-4-yl)amino)-2-cyclopropyl-N-methylacetamide]	–	1180 nM and 970 nM	5.97 and 5.967	1080 nM	1080	1100 nM	52 (≈ 22 µg/mL)	–	–
CNC(=O)C(C)Nc1cc(=O)n(C)c2ccc(Nc3ccnc(Cl)c3C#N)cc12 (stereo not drawn) [Compound 13a, 2-((6-((2-Chloro-3-cyanopyridin-4-yl)amino)-1-methyl-2-oxo-1,2-dihydroquinolin-4-yl)amino)-N-methylpropanamide]	–	–	–	–	–	–	184 (≈ 75.6 µg/mL)	–	<0.2 x10^-6 cms^-1
Cc1nnc(C(C)Nc2cc(=O)n(C)c3ccc(Nc4ccnc(Cl)c4C#N)cc23)o1 (stereo not drawn) [Compound 13c, 2-Chloro-4-((1-methyl-4-((1-(5-methyl-1,3,4-oxadiazol-2-yl)ethyl)amino)-2-oxo-1,2-dihydroquinolin-6-yl)amino)nicotinonitrile]	–	1070 nM and 680 nM	6.06 and 6.059	872 nM	870	690 nM and 1180 nM and 840 nM	247 (≈ 108 µg/mL)	–	<0.2 x10^-6 cms^-1
CC(Nc1cc(=O)n(C)c2ccc(Nc3ccnc(Cl)c3C#N)cc12)c1ncn(C)n1 (stereo not drawn) [Compound 13d, 2-Chloro-4-((1-methyl-4-((1-(1-methyl-1H-1,2,4-triazol-3-yl)ethyl)amino)-2-oxo-1,2-dihydroquinolin-6-yl)amino)nicotinonitrile]	–	–	–	–	–	–	258 (≈ 112 µg/mL)	–	–
C[C@@H](Nc1cc(=O)n(C)c2ccc(Nc3ccnc(Cl)c3C#N)cc12)c1ncccn1 [Compound 13f, (R)-2-Chloro-4-((1-methyl-2-oxo-4-((1-(pyrimidin-2-yl)ethyl)amino)-1,2-dihydroquinolin-6-yl)amino)nicotinonitrile]	–	–	–	–	–	–	126 (≈ 54.4 µg/mL)	–	0.8 x10^-6 cms^-1
CC(Nc1cc(=O)n(CC2CC2)c2ccc(Nc3ccnc(Cl)c3C#N)cc12)c1ncccn1 (stereo not drawn) [Compound 17a, 2-Chloro-4-((1-(cyclopropylmethyl)-2-oxo-4-((1-(pyrimidin-2-yl)ethyl)amino)-1,2-dihydroquinolin-6-yl)amino)nicotinonitrile]	–	230 nM and 790 nM	6.38 and 6.379	418 nM	420	410 nM	72 (≈ 34 µg/mL)	–	8.5 x10^-6 cms^-1
CC(Nc1cc(=O)n(CC2CCC2)c2ccc(Nc3ccnc(Cl)c3C#N)cc12)c1ncccn1 (stereo not drawn) [Compound 17b, 2-Chloro-4-((1-(cyclobutylmethyl)-2-oxo-4-((1-(pyrimidin-2-yl)ethyl)amino)-1,2-dihydroquinolin-6-yl)amino)nicotinonitrile]	–	250 nM and 210 nM and 640 nM	6.49 and 6.489	324 nM	320	–	32 (≈ 15.6 µg/mL)	–	21 x10^-6 cms^-1
Cc1cnc(C(C)Nc2cc(=O)n(C)c3ccc(Nc4ccnc(Cl)c4C#N)cc23)nc1 (stereo not drawn) [Compound 24a, 2-Chloro-4-((1-methyl-4-((1-(5-methylpyrimidin-2-yl)ethyl)amino)-2-oxo-1,2-dihydroquinolin-6-yl)amino)nicotinonitrile]	–	60 nM and 90 nM	7.14 and 7.136	70 nM and 73.1 nM	73	70 nM	31 (≈ 13.8 µg/mL)	–	5.6 x10^-6 cms^-1
CC(Nc1cc(=O)n(C)c2ccc(Nc3ccnc(Cl)c3C#N)cc12)c1ncc(C2CC2)cn1 (stereo not drawn) [Compound 24b, 2-Chloro-4-((4-((1-(5-cyclopropylpyrimidin-2-yl)ethyl)amino)-1-methyl-2-oxo-1,2-dihydroquinolin-6-yl)amino)nicotinonitrile]	–	–	–	–	–	–	32 (≈ 15.1 µg/mL)	–	14 x10^-6 cms^-1
